PubChem BioAssay (NCI)
Several values for one entry are separate records, joined by “and”; a condition that tells them apart may be missing. Equal entries are not always repeated.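 Results reflect a 48-hour exposure of cells in 96-well plates to compound at five concentrations. TGI: total growth inhibition.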

Legend:
Assay in all cases: growth of human tumour cells (NCI), 48 h
NCI-H23 lung = test system: NCI-H23 lung
HCC-2998 colon = test system: HCC-2998 colon
NCI-H522 lung = test system: NCI-H522 lung
SW-620 colon = test system: SW-620 colon
LOX IMVI melanoma = test system: LOX IMVI melanoma
OVCAR-4 ovarian = test system: OVCAR-4 ovarian
DU-145 prostate = test system: DU-145 prostate
HOP-62 NSCLC = test system: HOP-62 NSCLC
A498 renal = test system: A498 renal
786-0 renal = test system: 786-0 renal
MALME-3M melanoma = test system: MALME-3M melanoma
HT29 colon = test system: HT29 colon
MDA-MB-231 breast = test system: MDA-MB-231 breast
CAKI-1 renal = test system: CAKI-1 renal
UACC-257 melanoma = test system: UACC-257 melanoma
OVCAR-3 ovarian = test system: OVCAR-3 ovarian
OVCAR-5 ovarian = test system: OVCAR-5 ovarian
HOP-92 NSCLC = test system: HOP-92 NSCLC
CCRF-CEM leukemia = test system: CCRF-CEM leukemia

Compound	TGI (NCI-H23 lung) [µM]	TGI (HCC-2998 colon) [µM]	TGI (NCI-H522 lung) [µM]	TGI (SW-620 colon) [µM]	TGI (LOX IMVI melanoma) [µM]	TGI (OVCAR-4 ovarian) [µM]	TGI (DU-145 prostate) [µM]	TGI (HOP-62 NSCLC) [µM]	TGI (A498 renal) [µM]	TGI (786-0 renal) [µM]	TGI (MALME-3M melanoma) [µM]	TGI (HT29 colon) [µM]	TGI (MDA-MB-231 breast) [µM]	TGI (CAKI-1 renal)	TGI (UACC-257 melanoma) [µM]	TGI (OVCAR-3 ovarian) [µM]	TGI (OVCAR-5 ovarian) [µM]	TGI (HOP-92 NSCLC) [µM]	TGI (CCRF-CEM leukemia) [µM]
N=C(N)C(N=Nc1ccccc1)C(N)=O (stereo not given)	> 100	> 100	> 100	> 100	> 100	> 100	> 100	> 100	> 100	> 100	> 100	> 100	> 100	> 100 µM	> 100	> 100	> 100	> 100	
COc1cccc(Nc2nc(-c3cccs3)nc3ccc(Br)cc23)c1	> 100		> 100	> 100	> 100		> 100	57.9	> 100	> 100	> 100	> 100	> 100	> 100 µM	> 100	> 100	> 100	> 100	> 100
Nc1ccc2nc3ccc(N)cc3[n+](-c3ccccc3)c2c1	> 100	> 100	> 100	> 100	75.9	> 100	> 100	> 100	> 100	> 100	74.7	> 100	> 100	> 100 µM	68	> 100	80.9	> 100	> 100
Cc1cc(NC(=O)NC(=O)c2ccccc2N)ccc1Oc1ncc(Br)cn1	0.575	7.77	0.0555	> 100	> 67.1	> 75.9	> 4.64	31.2	0.751	41.2	> 69.9	0.258	7.93	63.3 µM	54.2	< 0.0173	> 100	53.8	> 100
CCOP(=O)(OCC)C(Nc1cccc([N+](=O)[O-])c1)c1ccccc1 (stereo not given)	> 100	> 100	> 100		> 100	> 100	> 100	> 100	> 100	> 100	> 100	> 100	> 100	> 100 µM	> 100	> 100	> 100	> 100	> 100
COc1cc2c(cc1OC)CC(=O)c1cc(OC)c(OC)cc1/C=C\2	> 12.5		> 12.5	> 12.5	> 12.5	> 12.5	> 12.5	> 12.5	> 12.5	> 12.5	> 12.5	> 12.5	> 12.5	> 12.5 µM	> 12.5	> 12.5	> 12.5	> 12.5	> 12.5
CC(C)C1OC2(C)OC(=N)C1(C#N)C(C#N)(C#N)C2C (stereo not given)	> 100	30.7		80.5	41.5		> 100		> 100	51.7	57.8	41	31.8	22.8 µM	> 100	33.4	71.1	34.7	51.4
COc1ccc(-c2cc(-c3ccc(Nc4ccnc5cc(Cl)ccc45)cc3)nc(N)c2C#N)cc1	> 100	> 100	> 100	> 100	> 100	> 100	> 100	> 100	> 100	> 100	> 100		> 100	> 100 µM		> 100	> 100	> 100	
CN(C)CCCNc1ncnc2nc[nH]c12	> 100	> 100	> 100	> 100	> 100	> 100	> 100	> 100	> 100	> 100	> 100	> 100	> 100	> 100 µM		> 100	> 100	> 100	> 100
CCN(CC)CCC1CCCCN1CC(=O)N1c2ccccc2NC(=O)c2ccccc21 (stereo not given)	> 100	> 100	> 100		> 100	> 100	> 100	> 100	> 100	> 100	> 100	> 100	> 100	> 100 µM	> 100	> 100	> 100	> 100	> 100
C/C(=N\Nc1ccccc1Br)c1cccc(/C(C)=N/Nc2ccccc2Br)n1	> 100	> 100		> 100	> 100	> 100	> 100	> 100	> 100	> 100	> 100	> 100	> 100	> 100 µM	> 100	> 100	> 100	> 100	> 100
O=C(O)CCC(NC(=O)c1ccc(Nc2cnc3ccc(C(F)(F)F)cc3n2)cc1)C(=O)O (stereo not given)	> 100	> 100		> 100	> 100	> 100	> 100	> 100	> 100	> 100	> 100	> 100	> 100	> 100 µM	> 100	> 100	> 100	> 100	> 100
N#CCCSC1SC(=C2SC3=C(SCCS3)S2)SC1SCCC#N (stereo not given)	> 100	> 100	> 100	> 100	> 100	> 100	> 100	> 100	> 100	> 100		> 100	> 100	> 100 µM	> 100	> 100	> 100	> 100	> 100
N#Cc1c(-c2ccc(Cl)cc2)c(C#N)c(=O)n(NS(=O)(=O)c2ccccc2)c1S	> 100		47.4	69.9	50.6	> 100	> 100		> 100	34.6	> 100		75.2	66.6 µM	> 100	> 100	> 100	> 100	> 100
OCC1OC(NCCNCCNC2OC(CO)C(O)C(O)C2O)C(O)C(O)C1O (stereo not given)	> 100	> 100	> 100	> 100	> 100		> 100	> 100	> 100	> 100	> 100	> 100	> 100	10.3 µM and > 100 µM	> 100	> 100	> 100	> 100	> 100
N#CCC(=O)c1cc(OCc2cc(OCc3ccc(Br)cc3)cc(OCc3ccc(Br)cc3)c2)cc(OCc2cc(OCc3ccc(Br)cc3)cc(OCc3ccc(Br)cc3)c2)c1	> 100	> 100	> 100			> 100	> 100	> 100	> 100	> 100	> 100		> 100	> 100 µM	> 100	> 100	> 100	> 100	
COC(=O)C1CC=C(SC(=O)c2ccccc2)N1C(=O)c1ccccc1 (stereo not given)	> 100	> 100	> 100	> 100		> 100	> 100	> 100	> 100	> 100	> 100	> 100	> 100	> 100 µM	> 100	> 100	> 100	> 100	
CC1=C(O)C(=O)C[C@]2(C)[C@H]3CC=C4[C@@H]5CC(C)(C)CC[C@@H]5C(=O)[C@H](O)[C@@]4(C)[C@]3(C)CC[C@@H]12	> 50	> 50	> 50	> 50		> 50	> 50	> 50	> 50	> 50	> 50	> 50	> 50	> 50 µM	> 50	> 50	> 50	28.5	> 50
COc1ccc(C(=O)c2sc(Nc3ccccc3)nc2N)cc1	> 100	> 100	> 100	> 100	> 100	> 100	> 100	> 80.2	> 100	> 100	> 100	> 100	> 100		> 100	> 100	> 100	> 100	> 100
Cc1nc2ccc(F)cc2c2c1CCO2	> 100	> 100	> 100	> 100	> 100	> 100	> 100		> 100	> 100	> 100	> 100	93.6	96 µM	> 100		> 100	> 100	> 100
